In one test the target is T1, phosphorylated mTOR (Sus scrofa, UniProt F1RHR8).
T1 construct: heart samples were homogenized in Laemmli-extraction-buffer; from tissue; host or cells: myocardium of GTKO/hCD46/hTM pig donor hearts transplanted orthotopically into baboons (Papio anubis); control: non-transplanted pig heart
Description: Western blot analysis of myocardium of transplanted hearts, phosphorylated mTOR. It is filed as in vivo, pig. The note with it: experiment 67 (group III), after treatment with temsirolimus, compared to control (Co). Here is the method: For protein extraction, heart samples were homogenized in Laemmli-extraction-buffer, and the protein content was estimated by the bicinchoninic acid (BCA, Merck, Darmstadt, Germany) protein assay. 20 μg of total protein was separated by 10% SDS-PAGE and transferred to polyvinylidene difluoride (PDVF) membranes (Millipore, Billerica, USA) by electroblotting. Membranes were washed in Tris-buffered saline solution with 0.1% Tween-20 (Merck) (TBS-T) and blocked in 5% w/v fat-free milk powder (Roth, Karlsruhe, Germany) for 1 h at room temperature. Then membranes were washed again in TBS-T and incubated in 5% w/v BSA (Roth) of the appropriate primary antibody overnight at 4° C. […] Bound antibodies were detected using an enhanced chemiluminescence detection reagent (ECL Advance Western Blotting Detection Kit, GE Healthcare, Munich, Germany) and appropriate x-ray films (GE Healthcare). […]
For protein extraction, heart samples were homogenized in Laemmli sample buffer and the protein content was estimated using the bicinchoninic acid (BCA, Merck) protein assay. […] Bound antibodies were detected using an enhanced chemiluminescence detection reagent (ECL Advance Western Blotting Detection Kit, GE Healthcare) and appropriate X-ray films (GE Healthcare). […]
A general note: Immunoblotting shows a protein as a band on a membrane.

For test [1], the system named is transplanted GT-KO/hCD46/hTM porcine donor heart. The test is described as follows: Life-supporting orthotopic pig-to-baboon cardiac xenotransplantation. It is filed as in vivo, baboon (Papio Anubis). An excerpt: Seven juvenile pigs of cross-bred genetic backround (German Landrace and Large White, blood group 0) served as donors for heart xenotransplantation. All organs were homozygous for alpha 1,3-galactosyltransferase knockout (GT-KO), and transgeneic for hCD46/thrombomodulin (hTM) (Revivicor, Blacksburg, Va., USA and Institute for Molecular Animal Breeding and Biotechnology, Gene Center, Faculty of Veterinary Medicine, Ludwig-Maximilians-University, Munich, Germany). Localisation and stability of hCD46/hTM expression was verified post-mortem by immunohistochemistry (FIG. 15). Donor heart function and absence of valvular defects were evaluated 7 days prior to transplantation by echocardiographies. Seven male captive-bred baboons (Papio Anubis, blood groups B and AB) were used as recipients.
The recipient's thorax was opened at midline. Unfractionated heparin (500 IU/kg; Heparin-Natrium-25000-ratiopharm, ratiopharm GmbH, Ulm, Germany) was given and the heart-lung machine connected, using both caval veins and the ascending aorta. Cardiopulmonary bypass commenced and the recipient cooled (30° C. in group I, 34° C. in groups II and III). After crossclamping the ascending aorta, the recipient's heart was excised at the atrial levels, both large vessels were cut. The porcine donor heart was transplanted applying Shumway's and Lower's technique (cf. reference 8).
Immunosuppression was based on Mohiuddin's regimen (cf. reference 5; there were changes as indicated in the following), with C1 esterase inhibitor instead of cobra venom factor for complement inhibition. Induction consisted of anti-CD20 antibody (Mabthera; Roche Pharma AG, Grenzach-Wyhlen, Germany), ATG (Thymoglobuline, Sanofi-Aventis Germany GmbH, Frankfurt, Germany), and either anti-CD40 antibody (mouse/rhesus chimeric IgG4 clone 2C10R4, NIH Nonhuman Primate Reagent Resource, Mass Biologicals, Boston, Mass., USA; courtesy of Keith Reimann) or humanised anti-CD40L pasylated Fab (production: Wacker-Chemie, Burghausen, Germany; purification: XL-protein GmbH, Freising, Germany; courtesy of Arne Skerra, cf. reference 9). Maintenance immunosuppression consisted of MMF (CellCept, Roche, Basle, Switzerland; trough level 2-3 μg/ml), either anti-CD40 antibody or anti-CD40L pasylated Fab, methylprednisolone (Urbasone solubile, Sanofi-Aventis Germany GmbH, Frankfurt, Germany). Anti-inflammatory therapy included II-6-receptor antibody (RoActemra, Roche Pharma AG, Grenzach-Wyhlen, Germany), TNFα inhibitor (Enbrel, Pfizer Pharma GmbH, Berlin, Germany) and II-1-receptor antagonist (Kineret, Swedish Orphan Biovitrum GmbH, Martinsried, Germany). Additive therapy: acetylsalicylic acid (Aspirin, Bayer Vital GmbH, Leverkusen, Germany), unfractionated heparin (Heparin-Natrium-25000-ratiopharm, ratiopharm GmbH, Ulm, Germany), C1 esterase inhibitor (Berinert, CSL Behring GmbH, Hattersheim, Germany), ganciclovir (Cymevene, Roche Pharma AG, Grenzach-Wyhlen, Germany), cefuroxime (Cefuroxim Hikma, Hikma Pharma GmbH, Martinsried, Germany) and epoetin beta (NeoRecormon 5000IU, Roche Pharma AG, Grenzach-Wyhlen, Germany).
Starting from 10 mg/kg/d, methylprednisolone was tapered down 1 mg/kg every 10 days in group I and II; in group III, methylprednisolone was tapered down to 0.1 mg/kg within 19 days. […]
Transthoracic echocardiographies were done in analgosedation at regular intervals using an HP Sonos 7500 (HP Inc., Palo Alto, Calif., USA); midpapillary short axis views were recorded. […]

A further test has as its system PCNA. The test is described as follows: Western blot analysis of myocardium of transplanted hearts, PCNA. It is filed as in vivo, pig. The note with it: experiment 67 (group III), after treatment with temsirolimus, compared to control (Co). On the procedure:
For protein extraction, heart samples were homogenized in Laemmli-extraction-buffer, and the protein content was estimated by the bicinchoninic acid (BCA, Merck, Darmstadt, Germany) protein assay. 20 μg of total protein was separated by 10% SDS-PAGE and transferred to polyvinylidene difluoride (PDVF) membranes (Millipore, Billerica, USA) by electroblotting. Membranes were washed in Tris-buffered saline solution with 0.1% Tween-20 (Merck) (TBS-T) and blocked in 5% w/v fat-free milk powder (Roth, Karlsruhe, Germany) for 1 h at room temperature. Then membranes were washed again in TBS-T and incubated in 5% w/v BSA (Roth) of the appropriate primary antibody overnight at 4° C. The following antibodies were used: rabbit anti-human pmTOR (#5536; Cell Signaling, Frankfurt, Germany) and mouse anti-human PCNA (#2586; Cell Signalling). After washing, membranes were incubated in 5% w/v fat-free milk powder with a horseradish peroxidase labelled secondary antibody for 1 h at room temperature. Bound antibodies were detected using an enhanced chemiluminescence detection reagent (ECL Advance Western Blotting Detection Kit, GE Healthcare, Munich, Germany) and appropriate x-ray films (GE Healthcare). After detection, membranes were stripped (Elution buffer: 2% SDS, 62.5 mM Tris/HCl, pH 6.7 and 100 mM […] for 30 min at 70° C.) and incubated with an appropriate second antibody. […]

Test [2] has as its target T2, porcine growth hormone receptor (GHR) (pig, UniProt P19756 19-638).
T2 construct: whole, on cells; Endogenous receptor in tissue sections of control pigs; GHR-KO pigs (frameshift in exon 3) lack it; also called porcine GHR
T2 sequence (looked up): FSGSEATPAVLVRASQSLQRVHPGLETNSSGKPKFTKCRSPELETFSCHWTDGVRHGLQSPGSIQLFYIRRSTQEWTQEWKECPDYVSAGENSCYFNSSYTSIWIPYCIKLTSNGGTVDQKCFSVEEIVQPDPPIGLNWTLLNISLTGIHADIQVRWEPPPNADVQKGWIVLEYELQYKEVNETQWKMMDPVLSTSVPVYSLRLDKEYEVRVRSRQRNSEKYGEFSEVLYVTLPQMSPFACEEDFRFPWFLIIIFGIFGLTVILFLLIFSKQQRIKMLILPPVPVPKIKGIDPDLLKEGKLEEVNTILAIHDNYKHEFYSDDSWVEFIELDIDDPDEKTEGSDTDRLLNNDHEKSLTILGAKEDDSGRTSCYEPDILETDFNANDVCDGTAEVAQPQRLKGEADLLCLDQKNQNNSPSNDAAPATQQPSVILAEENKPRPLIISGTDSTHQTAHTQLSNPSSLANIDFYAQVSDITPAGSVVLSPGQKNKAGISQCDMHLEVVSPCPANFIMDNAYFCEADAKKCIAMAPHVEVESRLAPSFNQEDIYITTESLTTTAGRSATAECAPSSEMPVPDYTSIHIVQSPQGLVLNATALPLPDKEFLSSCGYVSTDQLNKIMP
Description: ligand immunohistochemistry: rat GH on liver and kidney paraffin sections of control and GHR-KO pigs, detected with anti-rat GH antibody and DAB. On the procedure: Liver and kidney tissue of GHR-KO and control pigs was fixed overnight in 4% formaldehyde and routinely embedded in paraffin. Paraffin sections were dewaxed, and endogenous peroxidase and biotin were blocked with 1% H₂O₂ in Tris-buffered saline (TBS) for 15 min and by using the avidin/biotin blocking kit (no. SP-2001; Vector Laboratories), respectively. After blocking with 0.5% fish gelatin for 30 min, the slides were incubated in 0.5 μg/mL recombinant rat GH (no. 16343667, ImmunoTools) in 0.2% fish gelatin solution overnight at 4° C. They were then washed 3 times for 5 min in TBS and incubated in goat anti-rat GH polyclonal antibody solution (dilution 1:2,400, no. AF1566, R&D Systems) for 6 h at room temperature. After 3 washing steps in TBS (10 min each), the slides were incubated in biotinylated rabbit anti-goat IgG solution (dilution 1:100, no. BA-5000, Vector Laboratories) for 1 h at room temperature, washed 3 times for 10 min in TBS, and finally incubated with horseradish peroxidase-labelled avidin biotin complex for 30 min (no. PK-6100, VECTASTAIN Elite ABC-Peroxidase kit, Vector Laboratories). Immunoreactivity was visualized using 3,3′-diaminobenzidine tetrahydrochloride dihydrate (DAB) (brown color). Nuclear counterstaining was performed with Mayer's hemalum (blue color). […]

Where [3] appears, read: group III, with antihypertensive treatment and early glucocorticoid tapering.

T1 sequence (F1RHR8 1-2548): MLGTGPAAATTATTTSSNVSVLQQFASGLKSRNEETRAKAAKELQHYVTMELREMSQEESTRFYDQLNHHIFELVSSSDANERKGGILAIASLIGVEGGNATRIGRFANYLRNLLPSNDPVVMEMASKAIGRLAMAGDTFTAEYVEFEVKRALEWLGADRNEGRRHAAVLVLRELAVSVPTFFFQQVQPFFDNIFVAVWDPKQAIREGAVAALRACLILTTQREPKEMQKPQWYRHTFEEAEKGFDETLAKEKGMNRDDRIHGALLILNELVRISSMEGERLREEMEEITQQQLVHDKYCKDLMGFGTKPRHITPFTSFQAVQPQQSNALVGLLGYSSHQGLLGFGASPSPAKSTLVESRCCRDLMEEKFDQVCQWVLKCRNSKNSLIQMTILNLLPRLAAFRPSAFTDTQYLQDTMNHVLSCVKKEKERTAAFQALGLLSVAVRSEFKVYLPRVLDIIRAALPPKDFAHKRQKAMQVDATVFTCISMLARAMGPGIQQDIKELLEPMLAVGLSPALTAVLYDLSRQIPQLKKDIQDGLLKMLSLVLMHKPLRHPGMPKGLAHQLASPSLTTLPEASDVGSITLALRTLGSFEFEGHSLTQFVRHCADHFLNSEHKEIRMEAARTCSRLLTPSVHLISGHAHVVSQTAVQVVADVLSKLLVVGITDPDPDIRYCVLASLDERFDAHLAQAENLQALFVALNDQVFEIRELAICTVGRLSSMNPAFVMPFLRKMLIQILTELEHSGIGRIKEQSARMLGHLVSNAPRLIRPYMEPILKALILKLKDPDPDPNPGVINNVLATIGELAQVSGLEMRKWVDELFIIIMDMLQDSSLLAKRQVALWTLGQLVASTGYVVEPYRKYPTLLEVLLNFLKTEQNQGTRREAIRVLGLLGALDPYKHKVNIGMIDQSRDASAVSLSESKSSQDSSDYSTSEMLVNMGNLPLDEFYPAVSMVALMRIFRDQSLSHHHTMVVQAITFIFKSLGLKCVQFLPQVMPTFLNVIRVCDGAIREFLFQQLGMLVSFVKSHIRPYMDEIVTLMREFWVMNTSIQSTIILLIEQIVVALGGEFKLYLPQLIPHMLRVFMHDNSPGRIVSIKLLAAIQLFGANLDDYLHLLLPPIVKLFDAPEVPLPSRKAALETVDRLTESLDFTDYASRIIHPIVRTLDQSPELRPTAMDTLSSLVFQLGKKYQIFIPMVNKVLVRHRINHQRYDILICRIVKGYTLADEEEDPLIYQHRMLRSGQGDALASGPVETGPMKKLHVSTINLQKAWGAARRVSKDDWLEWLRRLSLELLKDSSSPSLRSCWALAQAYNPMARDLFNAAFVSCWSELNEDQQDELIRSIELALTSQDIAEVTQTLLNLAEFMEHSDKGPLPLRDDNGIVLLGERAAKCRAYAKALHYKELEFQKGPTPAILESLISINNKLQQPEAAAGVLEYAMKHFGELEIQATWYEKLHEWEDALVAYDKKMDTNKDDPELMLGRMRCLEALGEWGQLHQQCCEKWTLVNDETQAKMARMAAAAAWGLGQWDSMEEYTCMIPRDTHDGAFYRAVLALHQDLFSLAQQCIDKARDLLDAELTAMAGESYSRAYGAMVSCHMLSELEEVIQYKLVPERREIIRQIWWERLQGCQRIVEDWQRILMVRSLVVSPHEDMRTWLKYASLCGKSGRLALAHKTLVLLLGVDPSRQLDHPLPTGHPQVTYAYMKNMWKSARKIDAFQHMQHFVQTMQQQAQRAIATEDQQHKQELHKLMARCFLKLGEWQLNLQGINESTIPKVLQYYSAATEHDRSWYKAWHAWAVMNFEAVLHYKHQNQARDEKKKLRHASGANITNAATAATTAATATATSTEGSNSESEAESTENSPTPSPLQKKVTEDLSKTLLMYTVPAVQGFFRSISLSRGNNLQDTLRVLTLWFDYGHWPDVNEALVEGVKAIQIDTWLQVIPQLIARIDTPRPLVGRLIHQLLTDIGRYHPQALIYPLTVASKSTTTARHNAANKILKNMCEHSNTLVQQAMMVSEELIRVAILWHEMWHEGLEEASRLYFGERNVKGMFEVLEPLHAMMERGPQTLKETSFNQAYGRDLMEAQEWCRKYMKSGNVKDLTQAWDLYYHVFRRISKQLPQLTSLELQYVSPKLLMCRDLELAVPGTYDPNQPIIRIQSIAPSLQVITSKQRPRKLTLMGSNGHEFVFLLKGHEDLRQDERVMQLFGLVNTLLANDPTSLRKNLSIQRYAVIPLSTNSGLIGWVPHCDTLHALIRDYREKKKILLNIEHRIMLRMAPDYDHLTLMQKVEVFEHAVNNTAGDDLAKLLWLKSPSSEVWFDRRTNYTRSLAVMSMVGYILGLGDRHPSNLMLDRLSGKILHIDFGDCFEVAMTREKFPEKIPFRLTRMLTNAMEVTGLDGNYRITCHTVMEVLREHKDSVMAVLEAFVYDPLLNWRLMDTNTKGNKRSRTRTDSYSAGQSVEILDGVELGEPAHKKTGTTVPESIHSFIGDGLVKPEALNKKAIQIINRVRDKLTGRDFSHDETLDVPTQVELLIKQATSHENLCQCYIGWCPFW

In the case of `CO[C@H]1C[C@@H]2CC[C@@H](C)[C@@](O)(O2)C(=O)C(=O)N2CCCC[C@H]2C(=O)O[C@H]([C@H](C)C[C@@H]2CC[C@@H](OC(=O)C(C)(CO)CO)[C@H](OC)C2)CC(=O)[C@H](C)/C=C(\C)[C@@H](O)[C@@H](OC)C(=O)[C@H](C)C[C@H](C)/C=C/C=C/C=C/1C` [temsirolimus], the “phosphorylated mTOR in myocardium (Western blot)” value at phosphorylated mTOR is given as “downregulated”. Besides, the “pathologic findings described for groups I and II (heart and liver failure, graft overgrowth, myocardial hypertrophy)” value in test [1] (group III recipients: antihypertensive treatment, early glucocorticoid weaning and additional temsirolimus medication) is “absent”. Further, the cardiac overgrowth result in test [1] (group III, combination of blood pressure lowering, early cortisone tapering and temsirolimus) is “successfully counteracted”. In test [1] (setting [3]), the “myocardial hypertrophy of the transplanted heart” value is “mitigated” and the “obliteration of LV cavity” value was “omitted”. Moreover, in test [1] (recipients 13 and 14, i.v. temsirolimus discontinued on day 175 and on day 161), the “growth of the cardiac graft (LV mass) after discontinuation of temsirolimus” value is “increased growth of the cardiac graft”. In the test on PCNA, the “PCNA in myocardium (Western blot)” value was “downregulated”.

B1: recombinant rat GH (no. 16343667, ImmunoTools) (ligand, UniProt P01244 27-216, looked up)
chain: FPAMPLSSLFANAVLRAQHLHQLAADTYKEFERAYIPEGQRYSIQNAQAAFCFSETIPAPTGKEEAQQRTDMELLRFSLLLIQSWLGPVQFLSRIFTNSLMFGTSDRVYEKLKDLEEGIQALMQELEDGSPRIGQILKQTYDKFDANMRSDDALLKNYGLLSCFKKDLHKAETYLRVMKCRRFAESSCAF
notes: Used at 0.5 ug/mL as the ligand in ligand immunohistochemistry; Detected with goat anti-rat GH polyclonal antibody; also called growth hormone
B1: in test [2], the binding result is “binds”.

The record behind these values is patent publication US20210105999A1, “COMPOSITIONS FOR PROLONGING THE SURVIVAL AFTER ORTHOTOPIC AND HETEROTOPIC XENOGENEIC HEART, KIDNEY, LUNG OR LIVER TRANSPLANTATIONS” (priority 2018, published 2021).
